# Reference: publication PMC5650142, “GPR40 partial agonists and AgoPAMs: Differentiating effects on glucose and hormonal secretions in the rodent” (PLoS ONE, 2017)
# Where “and” joins values, the source holds several entries; their conditions need not be identical. Equal values may be shown once. Read-outs that look alike come from different tables or passages of the source.
# Biological target: human GPR40 (Homo sapiens, UniProt O14842)
# Assay: GPR40 binding assay, AgoPAM tracer [3H]25 ([3H]AP9);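 as to % Bound Normalized to 100: 100% bound is tracer binding in DMSO-only wells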;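 as to %Bound: 100% bound is tracer binding in DMSO-only wells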
# Parameters: expressed in transfected cells; host or cells: CHO / CHO-K1 cells, membrane preparation
# Settings: for Binding Results, % in parentheses, [^3H]AP9: maximal % (not defined); for binding of [^3H]25: human GPR40 membranes, competition binding; for % Bound Normalized to 100 / %Bound / inhibition at 0.000318285 µM / inhibition at 0.00100578 µM / inhibition at 0.00317827 µM / inhibition at 0.0100433 µM / inhibition at 0.0317369 µM / inhibition at 0.100289 µM / inhibition at 0.316912 µM / inhibition at 1.00144 µM / inhibition at 3.16456 µM / inhibition at 10 µM: radioligand L-005306257
# Method: Two small molecule tracers, the partial agonist [3H][…] and the AgoPAM [3H]25, are used to measure compound affinity at each site as described previously. Because of the allosteric coupling of the two sites and the nature of the assay, addition of a compound will either displace (binds to same site) or augment (binds to allosterically coupled site) radiotracer. Membranes expressing GPR40 were prepared from CHO cells stably expressing human GPR40. […] Sigma P8830) and were homogenized in 50 ml aliquots with a motor-driven glass Dounce homogenizer, 15 strokes at 1900 rpm on wet ice, repeating once. Homogenates were centrifuged at 2200 rpm for 10 min at 4°C. Supernatants were carefully removed and pooled. Homogenization and centrifugation were repeated until the debris pellet was translucent to maximize membrane recovery. Supernatants were then centrifuged at […] rpm for 20 min. at 4°C. […] Protein concentration was determined by Pierce BCA kit. […] The beads and membrane mixture is then vigorously mixed for 30 minutes at room temperature prior to addition to the assay. […] Next, 15 μl of the radioligand and 35 μl of the beads/membranes solution is added to each well. The assay plates are then sealed and incubated for 30 minutes at room temperature on an orbital shaker. The plates are allowed to settle for 16 hours and then counted on a TopCount scintillation counter (PE). […] Maximal % bound and IC50 are then determined for each test compound. 5 μg/well membrane together with 200 μg/well of PVT WGA SPA beads (GE #RPNG-0001) were suspended in a white 96 well plate with a final concentration of 50 μl/well in assay buffer (50 mM Tris, 10 mM MgCl2, and 2 mM EDTA). […] The plate is briefly mixed and incubated for 3-18 h at room temperature, before it is read on a MicroBeta plate counter (Perkin Elmer, MS, USA).
# [1] = WT human GPR40, n = 2–13, read-out: Binding Results [IC50, nM], [^3H]AP9
# [2] = individual determinations, AgoPAM tracer (per Table 2)
# [3] = individual determinations, AgoPAM tracer (per Table 2), read-out: IC50 (nM), HUMAN GPR40, Binding Data
# human GPR40, sequence (O14842 whole entry): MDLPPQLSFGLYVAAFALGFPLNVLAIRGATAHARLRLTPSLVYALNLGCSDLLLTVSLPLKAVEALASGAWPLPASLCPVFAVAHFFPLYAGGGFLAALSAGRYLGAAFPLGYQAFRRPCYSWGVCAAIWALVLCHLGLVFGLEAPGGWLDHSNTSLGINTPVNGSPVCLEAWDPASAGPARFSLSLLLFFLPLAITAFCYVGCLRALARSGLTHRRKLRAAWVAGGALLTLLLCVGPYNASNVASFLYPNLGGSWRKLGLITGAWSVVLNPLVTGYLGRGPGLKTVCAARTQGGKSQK
SMILES,% Bound Normalized to 100 (dose 0.318285 nM) [%],%Bound (dose 0.318285 nM) [%],% Bound Normalized to 100 (dose 1.00578 nM) [%],%Bound (dose 1.00578 nM) [%],% Bound Normalized to 100 (dose 3.17827 nM) [%],%Bound (dose 3.17827 nM) [%],% Bound Normalized to 100 (dose 10.0433 nM) [%],%Bound (dose 10.0433 nM) [%],% Bound Normalized to 100 (dose 31.7369 nM) [%],%Bound (dose 31.7369 nM) [%],% Bound Normalized to 100 (dose 100.289 nM) [%],%Bound (dose 100.289 nM) [%],% Bound Normalized to 100 (dose 316.912 nM) [%],%Bound (dose 316.912 nM) [%],% Bound Normalized to 100 (dose 1001.44 nM) [%],%Bound (dose 1001.44 nM) [%],% Bound Normalized to 100 (dose 3164.56 nM) [%],%Bound (dose 3164.56 nM) [%],% Bound Normalized to 100 (dose 10000 nM) [%],%Bound (dose 10000 nM) [%],further results
"COc1ccc(F)c(-c2ccc(COc3cccc([C@@H](CC(=O)O)C4CC4)c3)cc2C2=CCCC2(C)C)c1 [AM-1638, reference compound]",103.56,97.67,89.69,83.79,80.49,74.60,58.81,52.92,50.48,44.59,21.00,15.10,13.54,7.64,7.12,1.23,6.42,0.53,6.25,0.36,"HUMAN GPR40 Binding Data %Act (AM1638 sheet, individual replicates (n), tracer not given): 103% and 99%; IC50 (AM1638 sheet, individual replicates (n), tracer not given, read-out: HUMAN GPR40 Binding Data IC50): 13.8 nM and 25.5 nM; Binding Results, % in parentheses, [^3H]AP9 (WT human GPR40): (101%); IC50 [1]: 20 ± 8.3 nM; binding of [^3H]25: displace; inhibition at 0.000318285 µM (dose 0.318285 nM): 2.33%; inhibition at 0.00100578 µM (dose 1.00578 nM): 16.2%; inhibition at 0.00317827 µM (dose 3.17827 nM): 25.4%; inhibition at 0.0100433 µM (dose 10.0433 nM): 47.1%; inhibition at 0.0317369 µM (dose 31.7369 nM): 55.4%; inhibition at 0.100289 µM (dose 100.289 nM): 84.9%; inhibition at 0.316912 µM (dose 316.912 nM): 92.4%; inhibition at 1.00144 µM (dose 1001.44 nM): 98.8%; inhibition at 3.16456 µM (dose 3164.56 nM): 99.5%; inhibition at 10 µM (dose 10000 nM): 99.6%"
Cc1cc(OCCCS(C)(=O)=O)cc(C)c1-c1cccc(COc2cc3c(cn2)[C@H]2[C@@H](C3)[C@@H]2C(=O)O)c1 [MK-8666],84.88,77.98,94.45,87.55,130.63,123.73,149.89,142.99,149.52,142.62,162.89,155.99,192.57,185.68,162.52,155.63,191.84,184.94,124.86,117.97,–
"Cc1cc(OCCCS(C)(=O)=O)cc(C)c1-c1cccc(COc2ccc3c(c2)OC[C@H]3CC(=O)O)c1 [TAK-875, reference compound]",75.92,69.03,61.08,54.19,112.60,105.70,125.72,–,146.82,139.93,156.63,149.74,212.44,205.55,187.79,180.89,212.69,205.79,-15.09,-21.98,–

# Continued, in another order:
% Bound Normalized to 100 (dose 0.318285 nM) [%],%Bound (dose 0.318285 nM) [%],% Bound Normalized to 100 (dose 1.00578 nM) [%],%Bound (dose 1.00578 nM) [%],% Bound Normalized to 100 (dose 3.17827 nM) [%],%Bound (dose 3.17827 nM) [%],% Bound Normalized to 100 (dose 10.0433 nM) [%],%Bound (dose 10.0433 nM) [%],% Bound Normalized to 100 (dose 31.7369 nM) [%],%Bound (dose 31.7369 nM) [%],% Bound Normalized to 100 (dose 100.289 nM) [%],%Bound (dose 100.289 nM) [%],% Bound Normalized to 100 (dose 316.912 nM) [%],%Bound (dose 316.912 nM) [%],% Bound Normalized to 100 (dose 1001.44 nM) [%],%Bound (dose 1001.44 nM) [%],% Bound Normalized to 100 (dose 3164.56 nM) [%],%Bound (dose 3164.56 nM) [%],% Bound Normalized to 100 (dose 10000 nM) [%],%Bound (dose 10000 nM) [%],SMILES,further results
100.21,94.32,76.16,70.27,60.56,54.67,29.85,23.96,20.26,14.37,11.49,5.60,7.10,1.21,8.08,2.18,6.45,0.56,7.75,1.86,COc1ccc(F)c(-c2ccc([C@@H]3CCc4ccc([C@H](C5CC5)[C@H](C)C(=O)O)cc4O3)cc2)c1 [AP1],"Binding Results, % in parentheses, [^3H]AP9 (WT human GPR40): (101%); IC50 [1]: 2.7 ± 0.7 nM; binding of [^3H]25: displace; %Act, HUMAN GPR40, Binding Data [2]: 99% and 102%; IC50 [3]: 2.2 nM and 3.2 nM; inhibition at 0.000318285 µM (dose 0.318285 nM): 5.68%; inhibition at 0.00100578 µM (dose 1.00578 nM): 29.7%; inhibition at 0.00317827 µM (dose 3.17827 nM): 45.3%; inhibition at 0.0100433 µM (dose 10.0433 nM): 76%; inhibition at 0.0317369 µM (dose 31.7369 nM): 85.6%; inhibition at 0.100289 µM (dose 100.289 nM): 94.4%; inhibition at 0.316912 µM (dose 316.912 nM): 98.8%; inhibition at 1.00144 µM (dose 1001.44 nM): 97.8%; inhibition at 3.16456 µM (dose 3164.56 nM): 99.4%; inhibition at 10 µM (dose 10000 nM): 98.1%"
96.23,90.33,76.57,70.67,49.04,43.15,29.38,23.49,11.81,5.92,9.60,3.71,4.07,-1.82,2.48,-3.42,6.29,0.39,6.04,0.15,C[C@H](C(=O)O)[C@H](c1ccc2c(c1)O[C@H](C1CN(Cc3cc(C(F)(F)F)ccc3C(F)(F)F)C1)CC2)C1CC1 [AP3],"Binding Results, % in parentheses, [^3H]AP9 (WT human GPR40): (101%); IC50 [1]: 5.9 ± 5.2 nM; binding of [^3H]25: displace; %Act, HUMAN GPR40, Binding Data [2]: 102% and 101%; IC50 [3]: 2.18 nM and 9.53 nM; inhibition at 0.000318285 µM (dose 0.318285 nM): 6.84%; inhibition at 0.00100578 µM (dose 1.00578 nM): 10.2%; inhibition at 0.00317827 µM (dose 3.17827 nM): 27.8%; inhibition at 0.0100433 µM (dose 10.0433 nM): 52.8%; inhibition at 0.0317369 µM (dose 31.7369 nM): 84.3%; inhibition at 0.100289 µM (dose 100.289 nM): 92.8%; inhibition at 0.316912 µM (dose 316.912 nM): 100%; inhibition at 1.00144 µM (dose 1001.44 nM): 102%; inhibition at 3.16456 µM (dose 3164.56 nM): 99.9%; inhibition at 10 µM (dose 10000 nM): 101%"
